Assay [1] deals with lung damage model induced by cobra venom factor (CVF); infiltration in neutrocyte (myeloperoxidase). The experiment in a line: Anti-inflammatory action to lung damage model induced by CVF: myeloperoxidase activity as index of infiltration in neutrocyte. Type of assay: in vivo, Lewis rats. The note with it: Rattus norvegicus, iv, 0.5 h, read-out: Inhibition rate (%), myeloperoxidase activity as index of infiltration in neutrocyte. The method, then:
(§1) Anti-inflammatory action to lung damage model induced by CVF Compounds obtained by Examples and an exemplary known compound (sulfatide) were selected as Test Compounds to check an inflammatory action thereof to a lung damage model induced by cobra venom factor (CVF), in accordance with the method described by M. S. Mulligan et al ["J. IMMUNOL.", Vol.151, page 6410 (1993); and "INT. IMMUNOL.", Vol. 7, page 1107 (1995)].
(§2) Namely, the test compound was intravenously injected by an amount of 0.2 mg/rat to test animals (Lewis rats, age of 8 weeks, 5 animals in each group). After lapsed 5 minutes from administration, CVF (20U/2 ml/kg) was administered in a tail vein, and after 30 minutes, a laparotomy was carried out under nembutal anesthesia to perfuse the lung with phosphate-buffered saline (PBS, pH7.4) by injecting the same from right ventricle and to exenterate the lung. The extracted lung was homogenized with phosphate buffer (pH 7.4), centrifuged to collect a supernatant, and determined absorbance which was admitted as index of bleeding (It measures an amount of hemoglobin and thus detection wave-length was set to 541 nm).
On the other hand, the precipitation obtained by centrifugation was sonicated in the presence of cetrimide and centrifuged to obtain a supernatant, an activity myeloperoxidase therein being measured as an index of infiltration in neutrocyte.
(§3) Each inhibition rate (%) was calculated by
(§4) 100×[1-(value of test compound-value of negative control)/(value of positive control-value of negative control)].

Assay [2] has as its system lung damage model induced by cobra venom factor (CVF); bleeding. In words: Anti-inflammatory action to lung damage model induced by CVF: index of bleeding (hemoglobin absorbance, 541 nm, in lung homogenate supernatant). Type of assay: in vivo, Lewis rats. The following applies: Rattus norvegicus, iv, 0.5 h, read-out: Inhibition rate (%), index of bleeding. How it is done:
as §1, §2, §3, §4

Take `CCCCCCCCCCCCCCC(CCCCCCCCCCCCCC)CO[C@@H]1O[C@H](COS(=O)(=O)O)[C@H](O)[C@H](OS(=O)(=O)O)[C@H]1O[C@@H]1O[C@@H](C)[C@@H](O)[C@@H](O)[C@@H]1O` [Example 29, Disodium 2-tetradecylhexadesyl O-α-L-fuconyranosyl-(1→2)-β-D-galactopyranoside 3,6-disulfate]: the inhibition in vivo at 0.2 mg in assay [1] amounted to 65%; in assay [2], 67%.

Take `CC(C)CO[C@@H]1O[C@H](COS(=O)(=O)O)[C@H](O)[C@H](O)[C@H]1O` [Example 2, Sodium 2-methylpropyl β-D-galactopyranoside 6-sulfate]: the inhibition in vivo at 0.2 mg in assay [1] stood at 32%; in assay [2], 36%.

Take `CCCC(CCC)CO[C@@H]1O[C@H](COS(=O)(=O)O)[C@H](O)[C@H](OS(=O)(=O)O)[C@H]1O[C@@H]1O[C@@H](C)[C@@H](O)[C@@H](OS(=O)(=O)O)[C@@H]1O` [Example 26, Trisodium 2-propylpentyl O-α-L-fucopyranosyl-(1→2)-β-D-galactopyranoside 3,3',6-trisulfate]: the inhibition in vivo at 0.2 mg stood at 50% in assay [1] and 56% in assay [2].

With `CC(C)CO[C@@H]1O[C@H](CO)[C@@H](O[C@@H]2O[C@H](CO)[C@H](O)[C@H](OS(=O)(=O)O)[C@H]2O)[C@H](O)[C@H]1O` [Example 9-1, sodium 2-methylpropyl O-β-D-galactopyranosyl-(1→4)-β-D-glucopyranoside 3'-sulfate], the inhibition in vivo at 0.2 mg in assay [1] stood at 58%; in assay [2] it was 84%.

Turning to `CCCC(CCC)CO[C@@H]1O[C@H](COS(=O)(=O)O)[C@H](O)[C@H](OS(=O)(=O)O)[C@H]1O` [Example 6, Disodium 2-propylpentyl β-D-galactopyranoside 3,6-disulfate], the inhibition in vivo at 0.2 mg in assay [1] turned out to be 12%; in assay [2], 0%.

In the case of `CCCC(CCC)CO[C@@H]1O[C@H](CO)[C@H](O)[C@H](OS(=O)(=O)O)[C@H]1O[C@@H]1O[C@@H](C)[C@@H](O)[C@@H](OS(=O)(=O)O)[C@@H]1O` [Example 24-1, Disodium 2-propylpentyl O-α-L-fucopyranosyl-(1→2)-β-D-galactopyranoside 3,3'-disulfate], the inhibition in vivo at 0.2 mg in assay [1] worked out at 47%; in assay [2], 54%.

`CCCCCCCCCCCCCCCCCCCCCCC(CCCCCCCCCCCCCCCC)CO[C@@H]1O[C@H](CO)[C@H](O)[C@H](OS(=O)(=O)O)[C@H]1O` (stereo partly drawn) [Example 8, Sodium 2-hexadecyltetracosyl β-D-galactopyranoside 3-sulfate]: the inhibition in vivo at 0.2 mg in assay [1] stood at 51%; in assay [2], 53%.

Take `CC(C)CO[C@@H]1O[C@H](COS(=O)(=O)O)[C@H](O)[C@H](OS(=O)(=O)O)[C@H]1O` [Example 1-2, disodium 2-methylpropyl β-D-galactopyranoside 3,6-disulfate]: the inhibition in vivo at 0.2 mg in assay [1] turned out to be 22%; in assay [2], 16%.

In the case of `CCCCCCCCCCCCCCC(CCCCCCCCCCCCCC)CO[C@@H]1O[C@H](CO)[C@H](O)[C@H](OS(=O)(=O)O)[C@H]1O[C@@H]1O[C@@H](C)[C@@H](O)[C@@H](OS(=O)(=O)O)[C@@H]1O` [Example 28-1, disodium 2-tetradecylhexadecyl O-α-L-fucopyranosyl-(1→2)-β-D-galactopyranoside 3,3'-disulfate], the inhibition in vivo at 0.2 mg was 60% in assay [1] and 63% in assay [2].

With `CC(C)CO[C@@H]1O[C@H](COS(=O)(=O)O)[C@H](OS(=O)(=O)O)[C@H](OS(=O)(=O)O)[C@H]1O` [Example 3-1, trisodium 2-methylpropyl β-D-galactopyranoside 3,4,6-trisulfate], the inhibition in vivo at 0.2 mg worked out at 36% in assay [1] and 27% in assay [2].

Take `CCCC(CCC)CO[C@@H]1O[C@H](CO)[C@H](OP(=O)(O)O)[C@H](OP(=O)(O)O)[C@H]1O` [Example 16, Tetrasodium 2-propylpentyl β-D-galactopyranoside 3,4-diphosphate]: the inhibition in vivo at 0.2 mg in assay [1] was 70%; in assay [2] it was 75%.

As to `CCCC(CCC)CO[C@@H]1O[C@H](CO)[C@H](O)[C@H](OP(=O)(O)O)[C@H]1O[C@@H]1O[C@@H](C)[C@@H](O)[C@@H](O)[C@@H]1O` [Example 23-2, disodium 2-propylpentyl O-α-L-fucopyranosyl-(1→2)-β-D-galactopyranoside 3-phosphate], the inhibition in vivo at 0.2 mg in assay [1] is 49%; in assay [2], 51%.

Consider `CCCCCCCCCCCCCCC(CCCCCCCCCCCCCC)CO[C@@H]1O[C@H](COS(=O)(=O)O)[C@H](O)[C@H](OS(=O)(=O)O)[C@H]1O[C@@H]1O[C@@H](C)[C@@H](O)[C@@H](OS(=O)(=O)O)[C@@H]1O` [Example 30, Trisodium 2-tetradecylhexadecyl O-α-L-fucopyranosyl-(1→2)-β-D-galactopyranoside 3,3',6-trisulfate], for which the inhibition in vivo at 0.2 mg in assay [1] stood at 62%; in assay [2], 70%.

As to `CCCCCCCCCCCCCCC(CCCCCCCCCCCCCC)CO[C@@H]1O[C@H](CO)[C@H](O)[C@H](OP(=O)(O)O)[C@H]1O[C@@H]1O[C@@H](C)[C@@H](O)[C@@H](OP(=O)(O)O)[C@@H]1O` [Example 28-2, tetrasodium 2-tetradecylhexadecyl O-α-L-fucopyranosyl-(1→2)-β-D-galactopyranoside 3,3'-diphosphate], the values for the inhibition in vivo at 0.2 mg in assay [1] and in assay [2] were 55% and 63%, respectively.

On to `CCCC(CCC)CO[C@@H]1O[C@H](CO)[C@H](O)[C@H](OP(=O)(O)O)[C@H]1O` [Example 18, Disodium 2-propylpentyl β-D-galactopyranoside 3-phosphate], for which the inhibition in vivo at 0.2 mg came out at 51% in assay [1] and 50% in assay [2].

For `CCCC(CCC)CO[C@@H]1O[C@H](COP(=O)(O)O)[C@H](OP(=O)(O)O)[C@H](OP(=O)(O)O)[C@H]1OP(=O)(O)O` [Example 13, Octasodium 2-propylpentyl β-D-galactopyranoside 2,3,4,6-tetranhosphate], the inhibition in vivo at 0.2 mg in assay [1] turned out to be 46%; in assay [2] it was 43%.

Take `CCCC(CCC)CO[C@@H]1O[C@H](CO)[C@H](O)[C@H](OP(=O)(O)O)[C@H]1O[C@@H]1O[C@@H](C)[C@@H](O)[C@@H](OP(=O)(O)O)[C@@H]1O` [Example 24-2, tetrasodium 2-propylpentyl O-α-L-fucopyranosyl-(1→2)-β-D-galactopyranoside 3,3'-diphosphate]: the values for the inhibition in vivo at 0.2 mg in assay [1] and in assay [2] were 49% and 50%, respectively.

As for `CCCC(CCC)CO[C@@H]1O[C@H](COS(=O)(=O)O)[C@H](O)[C@H](OS(=O)(=O)O)[C@H]1O[C@@H]1O[C@@H](C)[C@@H](O)[C@@H](O)[C@@H]1O` [Example 25, Disodium 2-propylpentyl O-α-L-fucopyranosyl-(1→2)-β-D-galactonyranoside 3,6-disulfate], the inhibition in vivo at 0.2 mg in assay [1] turned out to be 50%; in assay [2] it was 56%.

Regarding `CCCCCCCCCCCCCCC(CCCCCCCCCCCCCC)CO[C@@H]1O[C@H](CO)[C@H](O)[C@H](OP(=O)(O)O)[C@H]1O[C@@H]1O[C@@H](C)[C@@H](O)[C@@H](O)[C@@H]1O` [Example 27-2, disodium 2-tetradecylhexadecyl O-α-L-fucopyranosyl-(1→2)-β-D-galactopyranoside 3-phosphate], the inhibition in vivo at 0.2 mg is 58% in assay [1] and 62% in assay [2].

As to `CC(C)CO[C@@H]1O[C@H](CO)[C@H](OP(=O)(O)O)[C@H](OP(=O)(O)O)[C@H]1O` [Example 15, Tetrasodium 2-methylpropyl β-D-galactopyranoside 3,4-diphosphate], the figures for the inhibition in vivo at 0.2 mg in assay [1] and in assay [2] were 44% and 45%, respectively.

Take `CCCCCCCCCCCCCCC(CCCCCCCCCCCCCC)CO[C@@H]1O[C@H](CO)[C@@H](O[C@@H]2O[C@H](CO)[C@H](OP(=O)(O)O)[C@H](OP(=O)(O)O)[C@H]2O)[C@H](O)[C@H]1O` [Example 22, Tetrasodium 2-tetradecylhexadecyl O-β-D-galactopyranosyl-(1→4)-β-D-glucopyranoside 3',4'-diphosphate]: the inhibition in vivo at 0.2 mg is 58% in assay [1] and 65% in assay [2].

Consider `CCCCCCCCCCCCCCC(CCCCCCCCCCCCCC)CO[C@@H]1O[C@H](COP(=O)(O)O)[C@H](OP(=O)(O)O)[C@H](OP(=O)(O)O)[C@H]1OP(=O)(O)O` [Example 14, Octasodium 2-tetradecylhexadecyl β-D-galactopyranoside2,3,4,6-tetraphosphate], for which the inhibition in vivo at 0.2 mg in assay [1] was 41%; in assay [2], 55%.

For the compound `CCCC(CCC)CO[C@@H]1O[C@H](CO)[C@@H](O[C@@H]2O[C@H](CO)[C@H](O)[C@H](OS(=O)(=O)O)[C@H]2O)[C@H](O)[C@H]1O` [Example 10-1, Sodium 2-propylpentyl O-β-D-galactopyranosyl-(1→4)-β-D-glucopyranoside 3'-sulfate], the inhibition in vivo at 0.2 mg in assay [1] is 66%; in assay [2], 65%.
